# Patent publication US7820624B2, “Peptide ligands” (ICH Productions Limited, priority 2003, dated 2010)
# Assays:
# [1] = tested on: human monocyte-derived immature dendritic cells; type: cell-based; conditions: 100,000 viral particles/cell
# From the text: Ad5 particles with the DC-binding peptides incorporated into the HI loop of the fibre protein were produced essentially as described previously ^12. Complementary oligonucleotides encoding the peptide sequences SHVKLNS [SEQ. ID. NO.:29] (5′ CC GGAAGCCACGTGAAGCTGAACAGCG 3′ [SEQ. ID. NO.:58] and 5′ CC GGCGCTGTTCAGCTTCACGTG GCTT 3′[SEQ. ID. NO.:59]) or APSNSTA [SEQ. ID. NO.:15] (5′ CC GGAGCCCCCAGCAACAGCACCGCCG 3′ [SEQ. ID. NO.:61] and 5′ CC GGCGGCGGTGCTGTTGCTGGG GGCT 3′ [SEQ. ID. NO.:62]) were synthesized (Operon Technologies, Alameda Calif. U.S.A.). The oligo pairs were then kinased, annealed, and ligated into the unique BspE1 site of pDV137 ^12, an expression construct encoding an Ad5 fibre protein with a double point mutant (KO1) which blocks CAR binding and a linker/restriction site in the HI loop, to create pDV178 (SHVKLNS) and pDV179 (APSNSTA). Following sequence confirmation, the plasmids were used to trans-complement the fibre-deleted vector Ad5.GFP.δF^18 by transient transfection into 293 cells as described ^19. Viral particles were purified by freeze/thaw lysis and CsCl gradient centrifugation and dialyzed into 40 mM TRIS-pH 8.1/0.9% NaCl/10% glycerol and stored at −80° C. Virus was quantified by protein assay (BioRad, Hercules Calif., U.S.A.) against BSA standards and using the relation 1 μg viral protein=4×10^9 viral particles.
# Retargeted adenoviruses carrying a peptide A or B were used for the transduction experiments described below. Wild type adenovirus type 5 and type 5 adenovirus having a KO1 fibre, all supplied by Dr Dan von Seggern, and as described in Nicklin 2001 Mol Ther 2001 Dec.; 4(6):534-42), were used as controls.
# Day 6 dendritic cells (see Example 1(v) above), or mouse bone marrow derived dendritic cells or mouse Sca1+ve stem cells, see (i) and (ii) above, were plated at 5×10^4 cells per well in a 48 well plate in 500 μl complete medium and allowed to settle for 3 hours at 37° C. Transductions were carried out in complete media, with virus being added at 100,000 viral particles/cell for 24 hours. Cells were harvested by scraping, spun down at 650 g (2000 rpm) for 5 min, resuspended in 300 μl PBS, and kept on ice before analysis. Viral transduction as determined by percentage of GFP positive cells was measured by FACS analysis. To measure percentage viability, 10 μl of 7-amino-actinomycin D (7AAD; Sigma, Poole, Dorset) was added immediately prior to analysis. Viral transduction of macrophages was carried out at 10,000 particles/cell in medium containing 2.5% FCS. For other cell types, cells were seeded overnight at 5×10^4 cells per well in 24-well plates in the appropriate media. Adenovirus was added in OptiMEM at 10,000 viral particles/cell, 1 ml per well in triplicate and incubated for 24 h at 37° C. Cells were then washed twice in PBS, trypsinised, triplicate wells pooled, spun down at 350×g for 5 min and resuspended in 300 μl PBS before analysis by flow cytometry where cell viability was to be measured, 10 μl 7AAD was added just prior to analysis.
# Cells were pooled from three separate transduction experiments for the calculation of results.
# [2] = tested on: day 6 immature dendritic cells; test: Maturation of adenovirus-transduced dendritic cells in response to LPS (marker flow cytometry); type: cell-based, human; conditions: LPS 50 ng/ml; virus 100,000 particles per cell
# Method: Day 6 immature dendritic cells were infected with retargeted Ad or Ad5 at 100,000 particles per cell in complete medium for 24 hours, with E. coli 026:B6 lipopolysaccharide (LPS) added following 3 hours incubation at a concentration of 50 ng/ml. As controls, dendritic cells were either incubated in complete medium for 24 hours or matured by the addition of LPS in complete medium for 24 hours, In all samples IL-4 and GM-CSF were present in the complete medium at 25 ng/ml and 100 ng/ml respectively. Cells were then phenotyped by staining as follows: a minimum of 5×10^4 cells in a volume of less than 2 ml medium were added to the recommended amount of antibody and incubated for 20 min on ice. 2 ml of ice-cold PBS was added before centrifugation at 300×g for 5 min at 4° C. The supernatant was flicked off and the pellet resuspended in 300 μl ice cold PBS. Cells from each sample were stained with antibodies to HLA-DR, CD40, CD80, CD83, CD86 and isotype matched control antibodies. Where cell viability was also measured, […] of 7AAD was added immediately prior to analysis. Cells were analysed by flow cytometry using a Epics XL (Beckman Coulter, High Wycombe, UK.) and the EXPO32 analysis software (Beckman Coulter).
substance,measurement,setting,value
SHVKLNS (Synthetic peptide binding to dendritic cells),"Transduction (% GFP positive cells), donor A","[1]; complete medium, 24 hours, donor A",64.2%
same,"Transduction (% GFP positive cells), donor B","[1]; complete medium, 24 hours, donor B",78.9%
same,"Percentage cell death, donor A","[1]; donor A, 7AAD",(12.0) %
same,"Percentage cell death, donor B","[1]; donor B, 7AAD",(13.3) %
same,CD40 positive cells,[2],15.6%
same,CD80 positive cells,[2],16.5%
same,CD83 positive cells,[2],24.6%
same,CD86 positive cells,[2],98.4%
same,HLA-DR positive cells,[2],58.1%
